In patent US7238694B2, “Rifamycin imino derivatives effective against drug-resistant microbes” (Cumbre Pharmaceuticals, Inc., priority 2004, dated 2007) one finds MIC data, which are given here for 5 molecules.

≈ marks a conversion by molar mass, not a printed value.

What all share (format): cell-based
For assay [1], the system named is Staphylococcus aureus ATCC29213. Kind of assay: MIC, microbroth dilution (NCCLS). The conditions noted are these: rifS strain, Cation-Adjusted Mueller-Hinton Broth, 37° C., read-out: MIC. Background: In broth dilution the organism is exposed to a series of concentrations in liquid medium.
The test system of assay [2] is Staphylococcus aureus ATCC29213 rpoB^H418Y. Kind of assay: microbe, parasite or virus in culture. The conditions noted are these: Staphylococcus aureus, ATCC29213; rifR strain; Cation-Adjusted Mueller-Hinton Broth, 37° C.; read-out: MIC.
Assay [3] relates to Staphylococcus aureus MT1222 gyrA^A116E grlB^S80F. The experiment in a line: microbe, parasite or virus in culture. The conditions noted are these: cipR strain, Cation-Adjusted Mueller-Hinton Broth, 37° C., read-out: MIC.
Assay [4] concerns Staphylococcus epidermidis ATCC12228. Kind of assay: MIC, microbroth dilution (NCCLS). The conditions noted are these: rifS strain, Cation-Adjusted Mueller-Hinton Broth, 37° C., read-out: MIC.
Assay [5] relates to Streptococcus pneumoniae ATCC6303. The experiment in a line: MIC, microbroth dilution (NCCLS). The conditions noted are these: rifS strain, THY Broth with 1 mg/mL catalase, 5% CO2, 37° C., read-out: MIC.
The subject of assay [6] is Streptococcus pyogenes ATCC19615. Kind of assay: MIC, microbroth dilution (NCCLS). The conditions noted are these: rifS strain, THY Broth, 37° C., read-out: MIC.
Assay [7] has as its system Haemophilus influenzae ATCC10211. Kind of assay: MIC, microbroth dilution (NCCLS). The conditions noted are these: rifS strain, BHI Broth with NAD and hematin, 37° C., read-out: MIC.

As for `CO[C@H]1/C=C/O[C@@]2(C)Oc3c(C)c(O)c4c(O)c(c(/C=N/NCC5CCN(c6c(F)cc7c(=O)c(C(=O)O)cn(C8CC8)c7c6Cl)C5)c(O)c4c3C2=O)NC(=O)/C(C)=C\C=C\[C@H](C)[C@H](O)[C@@H](C)[C@@H](O)[C@@H](C)[C@H](OC(C)=O)[C@@H]1C` (mixture of isomers) [Example 39, (R/S)-3-[1-(3-Carboxy-8-chloro-1-cyclopropyl-6-fluoro-4-oxo-1,4-dihydroquinolin-7-yl)-pyrrolidin-3-yl-methyl-hydrazino-methylenyl]-rifamycin SV], the MIC lay in the range of 0.008 to 1 µg/mL (≈ 0.00726 to 0.907 µM) in assay [1]; 0.06 to 16 µg/mL (≈ 0.0544 to 14.5 µM) in assay [2]; 0.008 to 0.125 µg/mL (≈ 0.00726 to 0.113 µM) in assay [3]; 0.008 to 0.1 µg/mL (≈ 0.00726 to 0.0907 µM) in assay [4]; 0.008 to 0.06 µg/mL (≈ 0.00726 to 0.0544 µM) in assay [5]; 0.008 to 0.03 µg/mL (≈ 0.00726 to 0.0272 µM) in assay [6]. In addition, the MIC in assay [7] is 0.125 to 4 µg/mL (≈ 0.113 to 3.63 µM).

Turning to `CO[C@H]1/C=C/O[C@@]2(C)Oc3c(C)c(O)c4c(O)c(c(/C=N/N(C)C5CCN(c6nc7c(cc6F)c(=O)c(C(=O)O)cn7-c6ccc(F)cc6F)C5)c(O)c4c3C2=O)NC(=O)/C(C)=C\C=C\[C@H](C)[C@H](O)[C@@H](C)[C@@H](O)[C@@H](C)[C@H](OC(C)=O)[C@@H]1C` (mixture of isomers) [Example 43, (R/S)-3-[1-[3-Carboxy-1-(2,4-difluoro-phenyl)-6-fluoro-4-oxo-1,4-dihydro-[1,8]naphthyridin-7-yl]-pyrrolidinyl-3-N′-methylhydrazinomethylenyl]rifamycin SV], the MIC in assay [1] fell in the range of 0.008 to 1 µg/mL (≈ 0.00701 to 0.876 µM); in assay [2], 0.06 to 16 µg/mL (≈ 0.0526 to 14 µM); in assay [3], 0.008 to 0.125 µg/mL (≈ 0.00701 to 0.11 µM); in assay [4], 0.008 to 0.1 µg/mL (≈ 0.00701 to 0.0876 µM); in assay [5], 0.008 to 0.06 µg/mL (≈ 0.00701 to 0.0526 µM); in assay [6], 0.008 to 0.03 µg/mL (≈ 0.00701 to 0.0263 µM). For the same molecule, in assay [7], the MIC fell in the range of 0.125 to 4 µg/mL (≈ 0.11 to 3.51 µM).

For `CO[C@H]1/C=C/O[C@@]2(C)Oc3c(C)c(O)c4c(O)c(c(/C=N/N5CCN(c6c(F)cc7c(=O)c(C(=O)O)cn8c7c6OCC8C)CC5C)c(O)c4c3C2=O)NC(=O)/C(C)=C\C=C\[C@H](C)[C@H](O)[C@@H](C)[C@@H](O)[C@@H](C)[C@H](OC(C)=O)[C@@H]1C` (mixture of isomers) [Example 44, (R/S)-3-[9-fluoro-3-methyl-10-(3-methyl-piperazin-1-hydrazinomethylenyl)-7-oxo-7H-pyrido[1,2,3-de]-1,4-benzoxazine-6-carboxylic acid]rifamycin SV], the MIC lay in the range of 0.008 to 1 µg/mL (≈ 0.00738 to 0.922 µM) in assay [1]; 0.06 to 16 µg/mL (≈ 0.0553 to 14.8 µM) in assay [2]; 0.008 to 0.125 µg/mL (≈ 0.00738 to 0.115 µM) in assay [3]; 0.008 to 0.1 µg/mL (≈ 0.00738 to 0.0922 µM) in assay [4]; 0.008 to 0.06 µg/mL (≈ 0.00738 to 0.0553 µM) in assay [5]; 0.008 to 0.03 µg/mL (≈ 0.00738 to 0.0277 µM) in assay [6]. Further, the MIC in assay [7] was in the range of 0.125 to 4 µg/mL (≈ 0.115 to 3.69 µM).

For the molecule `CO[C@H]1/C=C/O[C@@]2(C)Oc3c(C)c(O)c4c(O)c(c(/C=N/N5CCC(NC6(C7CCN(c8c(F)cc9c(=O)c(C(=O)O)cn(C%10CC%10)c9c8Cl)C7)CC6)CC5)c(O)c4c3C2=O)NC(=O)/C(C)=C\C=C\[C@H](C)[C@H](O)[C@@H](C)[C@@H](O)[C@@H](C)[C@H](OC(C)=O)[C@@H]1C` (mixture of isomers) [Example 45, (R/S)-3-[4-[1-[1-(3-Carboxy-1-cyclopropyl-7-fluoro-8-chloro-4-oxo-4H-quinolin-7-yl)pyrrolidin-3-yl]cycloprop-1-ylamino]piperidin-1-ylaminomethylenyl]rifamycin SV], the MIC in assay [1] was in the range of 0.008 to 1 µg/mL (≈ 0.0066 to 0.825 µM); in assay [2], 0.06 to 16 µg/mL (≈ 0.0495 to 13.2 µM); in assay [3] it was 0.008 to 0.125 µg/mL (≈ 0.0066 to 0.103 µM); in assay [4], 0.008 to 0.1 µg/mL (≈ 0.0066 to 0.0825 µM); in assay [5], 0.008 to 0.06 µg/mL (≈ 0.0066 to 0.0495 µM); in assay [6], 0.008 to 0.03 µg/mL (≈ 0.0066 to 0.0248 µM). Further, the MIC in assay [7] lay within 0.125 to 4 µg/mL (≈ 0.103 to 3.3 µM).

As for `COc1c(N2CCC(C3(NC4CCN(/N=C/c5c6c(O)c7c(O)c(C)c8c(c7c5O)C(=O)[C@@](C)(O/C=C/[C@H](OC)[C@@H](C)[C@@H](OC(C)=O)[C@H](C)[C@H](O)[C@H](C)[C@@H](O)[C@@H](C)/C=C/C=C(/C)C(=O)N6)O8)CC4)CC3)C2)c(F)cc2c(=O)c(C(=O)O)cn(C3CC3)c12` (mixture of isomers) [Example 46], the MIC in assay [1] fell in the range of 0.008 to 1 µg/mL (≈ 0.00663 to 0.828 µM); in assay [2], 0.06 to 16 µg/mL (≈ 0.0497 to 13.3 µM); in assay [3] it was 0.008 to 0.125 µg/mL (≈ 0.00663 to 0.104 µM); in assay [4], 0.008 to 0.1 µg/mL (≈ 0.00663 to 0.0828 µM); in assay [5], 0.008 to 0.06 µg/mL (≈ 0.00663 to 0.0497 µM); in assay [6], 0.008 to 0.03 µg/mL (≈ 0.00663 to 0.0248 µM). For the same molecule, the MIC in assay [7] is 0.125 to 4 µg/mL (≈ 0.104 to 3.31 µM).
